Data: US20260364056A1, “METHODS OF TREATMENT OF NON-PANCREATIC GASTROINTESTINAL CANCERS” (IONCTURA bv, priority 2023, published 2026)

Assays:
[1] = tested on: breast cancer; conditions: in vivo; cited from earlier work
[2] = tested on: HT-29 cells; assay: Transwell migration assay; format: cell-based, human; conditions: 12 μM, 24 h, serum-free medium in upper chamber
Procedure: (§1) Cell culture inserts with […] pores (Corning, inc.) were coated with 50 μl of a 10 mg/ml Collagen type 1 solution (Gibco). 1.5×10^4 cells were plated in the upper chamber in serum-free medium, in absence or presence of 12 μM Compound 1, while the bottom wells were filled with complete medium. The cells were allowed to migrate across the membrane for at least 16 h. After incubation, the cells were fixed with PFA 4% for 10′ and stained with 0.02% crystal violet for 10′. The excess dye was washed off with tap water and the non-migrated cells were scraped off from the upper surface of the membrane with a cotton swab. Cell migratory ability was assessed by counting the average number of cells at least 5 field at 10× magnification.
(§2) Images were taken at time 0, 24 h and 48 h and cell migration into the cell-free region (outlined) was quantified.
(§3) Tumor progression is characterized by an enhanced cell motility and invasiveness. To expand upon the knowledge of the effects of Compound 1 on HLE, KKU-m213 and HT-29 cells, their migratory activity was assessed when treated with Compound 1 by using both, a wound healing and a transwell migration assay. Cells were seeded in a 12-well plate and, when a confluent monolayer was reached, an artificial gap was generated between the cells using a pipette tip. The scratch closure of migrating cells was observed after […]. […] In HLE cells a 3 μM concentration of Compound 1 is already sufficient to cause a 40% inhibition of cell migration. […] (FIG. 3B).

[3] = tested on: HLE cells; assay: Transwell migration assay; format: cell-based, human; conditions: 12 μM, 24 h, serum-free medium in upper chamber
Procedure: as §1, §2, §3

[4] = tested on: KKU-M213 cells; assay: Transwell migration assay; format: cell-based, human; conditions: 12 μM, 24 h, serum-free medium in upper chamber
Procedure: as §1, §2, §3

[5] = tested on: Caco2 cells; assay: Cell viability assay (crystal violet); format: cell-based, human
Procedure: (§4) Human colorectal adenocarcinoma HT29 and Caco-2 cells, hepatocellular carcinoma HLE cells, cholangiocarcinoma RBE and KKU-M213 cells were purchased from the American […] Culture Collection (ATCC, Manassas, VA, USA). The hepatocellular carcinoma cell line HLF was purchased from JCRB Cell Bank (Japan). All cell lines were cultured in Dulbecco's Modified Eagle Medium (DMEM) supplemented with 10% foetal bovine serum (FBS), 1 mM pyruvate, 25 mM HEPES, 100 U/mL penicillin-streptomycin (all from Thermo Fisher Scientific, Waltham, MA, USA), and maintained in a humidified atmosphere at 37 °C containing 5% CO2. The medium was changed every three days. Oleoyl-LPA was purchased from Avanti Polar Lipids (Birmingham, AL).
(§5) Cells were seeded in 96-well plates at a density of 2000 cells/well in 10% FBS supplemented medium. After 24 h, medium was removed, the cells washed with PBS and cultured in the presence or absence of FBS and of different concentrations of Compound land LPA. After the time set for the experiment, the cells were fixed with a 4% PFA solution and stained with 0.02% crystal violet for 10 min. Subsequently the plates have been washed with water to remove excess dye. The cell-bound dye was redissolved in 1% SDS and the optical density was measured at λ=570 with a iMark™ Microplate Absorbance Reader (Bio-rad).
(§6) FIGS. 2A and 2B show the effect of Compound 1 on cell proliferation in the absence of FBS and in the presence of 10% FBS. […] Cells were grown in serum free culture medium or in presence of 10% FBS and incubated with increasing Compound 1 concentrations or with DMSO (control cells) for 24, 48 and 72 hours. After fixation, proliferation was assessed by crystal violet staining method. *P<0.05.
(§7) To evaluate the anti-proliferative/cytotoxic effects of Compound 1, six different cancer tumour cell lines were treated developed from cholangiocarcinoma (CCA), hepatocellular carcinoma (HCC) and colorectal cancer (CRC), with increasing concentration of the Compound 1 ranging from 10 μM up to 50 μM and at different times of incubation. After 24, 48 and 72 hours of drug treatment, attached cells were fixed and stained with crystal violet dye. This method is used to evaluate the effect of chemotherapeutics or other anti-cancer drugs on cell survival and proliferation. In the first experiments, Compound 1 was administered to cells in culture medium supplemented with 10% FBS. […] To test the hypothesis that the presence of serum, and consequently the endogenous LPA, could interfere with the Compound 1 activity, all the cancer cells were treated with Compound 1 at concentration ranging from 1 μM up to 12 μM, in the presence or absence of 10% FBS.

[6] = tested on: HT-29 cells; assay: Cell viability assay (crystal violet); format: cell-based, human
Procedure: as §4, §5, §6, §7

[7] = tested on: RBE cells; assay: Cell viability assay (crystal violet); format: cell-based, human
Procedure: as §4, §5, §6, §7

[8] = tested on: HLE cells; assay: Cell viability assay (crystal violet); format: cell-based, human
Procedure: as §4, §5, §6, §7

[9] = tested on: KKU-M213 cells; assay: Cell viability assay (crystal violet); format: cell-based, human
Procedure: as §4, §5, §6, §7

[10] = tested on: KKU-M213 cells; assay: Crystal violet staining and morphology under inverted light microscope; format: cell-based, human; conditions: 3, 9 and 12 μM, 72 h
[11] = tested on: HT-29 cells; assay: Wound healing assay; format: cell-based, human; conditions: 9 and 12 μM, serum-free
Procedure: Cells were seeded in a 12-well plate in 10% FBS medium and grown to reach a 80-90% confluence. Then, a scratch was made on the cell monolayer by using a p200 pipette tip. The plate was washed with sterile PBS to remove the debris and on the outer bottom of the plate were created markings with a tip marker, used as reference points. Each cell line was incubated with medium without FBS and containing increasing concentrations of Compound 1 (1-3-9-12 μM). Images were acquired at 0, 24 and 48 h by using a confocal microscope Nikon Eclipse Ti2 in bright field microscope and analysed with image-J. Image-J software was used to measure the scratched area. Cell migratory ability of wound-healing was assessed using the following formula: [(wound area at 0 h)−(wound area at indicated time)]/(wound area at 0 h).
as §2
Tumor progression is characterized by an enhanced cell motility and invasiveness. To expand upon the knowledge of the effects of Compound 1 on HLE, KKU-m213 and HT-29 cells, their migratory activity was assessed when treated with Compound 1 by using both, a wound healing and a transwell migration assay. Cells were seeded in a 12-well plate and, when a confluent monolayer was reached, an artificial gap was generated between the cells using a pipette tip. […]

[12] = 1 μM up to 12 μM, 10% FBS, 24, 48 and 72 h
[13] = 3 to 12 μM, absence of FBS, evident after 48 h, stronger after 72 h
[14] = 30 to 50 μM, medium with 10% FBS

Question: Which “dissemination of primary tumors” value [1] does the source give for `C[C@H](NC(=O)CCc1nc2cccnc2n1Cc1ccc(OC(F)(F)F)cc1)c1ccc(Cl)cc1` [Compound 1, N-[(S)-1-(4-chloro-phenyl)-ethyl]-3-[3-(4-trifluoromethoxy-benzyl)-3H-imidazo[4,5-b]pyridin-2-yl]-propionamide] here?
Answer: inhibit the dissemination of primary tumors

Question: What about the “migratory capacity (migrated cells through the membrane)” value (“migratory capacity” below) [2] of the same molecule?
Answer: significantly inhibited migratory capacity

Question: And the “migratory capacity” value [3]?
Answer: significantly inhibited migratory capacity

Question: And the “migratory capacity” value [4]?
Answer: significantly inhibited migratory capacity

Question: What about the “effect on cell proliferation” value [5, 12] of the same molecule?
Answer: generally the same as the control

Question: What about the “cytotoxic effect / inhibition of cell proliferation” value (from here on “cytotoxic effect / inhibition”) [5, 13] of the same molecule?
Answer: significant (p<0.05) cytotoxic effect in a dose-dependent manner

Question: What about the cytotoxic effect [5, 14] of the same molecule?
Answer: significant (p<0.05) cytotoxic effect

Question: And the “effect on cell proliferation” value [6, 12]?
Answer: generally the same as the control

Question: What about the “effect of FBS on activity of Compound 1” value ([6]; 9 μM, 72 h, 5% FBS) of the same molecule?
Answer: completely abolishing the Compound 1 effect

Question: What about the “cell inhibition compared to control” value ([6]; 9 μM, 72 h, no FBS) of the same molecule?
Answer: clear difference in the cell inhibition compared to the control

Question: What about the “effect of FBS on activity of Compound 1” value ([6]; 9 μM, 72 h, starting at 2% FBS) of the same molecule?
Answer: significantly (p<0.05) reduced the activity of Compound 1

Question: What about the “cytotoxic effect / inhibition” value [6, 13] of the same molecule?
Answer: significant (p<0.05) cytotoxic effect in a dose-dependent manner

Question: What about the cytotoxic effect [6, 14] of the same molecule?
Answer: significant (p<0.05) cytotoxic effect

Question: What about the “effect on cell proliferation” value [7, 12] of the same molecule?
Answer: generally the same as the control

Question: And the “cytotoxic effect / inhibition” value [7, 13]?
Answer: significant (p<0.05) cytotoxic effect in a dose-dependent manner

Question: What about the cytotoxic effect [7, 14] of the same molecule?
Answer: significant (p<0.05) cytotoxic effect

Question: What about the “effect on cell proliferation” value [8, 12] of the same molecule?
Answer: generally the same as the control

Question: What about the “effect of FBS on activity of Compound 1” value ([8]; 9 μM, 72 h, 5% FBS) of the same molecule?
Answer: completely abolishing the Compound 1 effect

Question: What about the “cell inhibition compared to control” value ([8]; 9 μM, 72 h, no FBS) of the same molecule?
Answer: clear difference in the cell inhibition compared to the control

Question: What about the “effect of FBS on activity of Compound 1” value ([8]; 9 μM, 72 h, starting at 2% FBS) of the same molecule?
Answer: significantly (p<0.05) reduced the activity of Compound 1

Question: And the “cytotoxic effect / inhibition” value [8, 13]?
Answer: significant (p<0.05) cytotoxic effect in a dose-dependent manner

Question: And the cytotoxic effect [8, 14]?
Answer: significant (p<0.05) cytotoxic effect

Question: What about the “effect on cell proliferation” value [9, 12] of the same molecule?
Answer: generally the same as the control

Question: What about the “effect of FBS on activity of Compound 1” value ([9]; 9 μM, 72 h, 5% FBS) of the same molecule?
Answer: completely abolishing the Compound 1 effect

Question: What about the “cell inhibition compared to control” value ([9]; 9 μM, 72 h, no FBS) of the same molecule?
Answer: clear difference in the cell inhibition compared to the control

Question: What about the “effect of FBS on activity of Compound 1” value ([9]; 9 μM, 72 h, starting at 2% FBS) of the same molecule?
Answer: significantly (p<0.05) reduced the activity of Compound 1

Question: What about the “cytotoxic effect / inhibition” value [9, 13] of the same molecule?
Answer: significant (p<0.05) cytotoxic effect in a dose-dependent manner

Question: And the cytotoxic effect [9, 14]?
Answer: significant (p<0.05) cytotoxic effect

Question: And the morphological changes [10]?
Answer: cells exhibit morphological changes and characteristics of apoptosis such as cell shrinkage and cytoplasmic vacuolization

Question: What about the “inhibition of wound closure” value [11] of the same molecule?
Answer: significantly (p<0.05) inhibited wound closure
